Data published in patent US10111900B2, “β-glucan methods and compositions that affect the tumor microenvironment” (Biothera, Inc., priority 2014, dated 2018).

System: CD4 T cells
Assay: MCM-CD4 T cell proliferation and surface marker study
Type: cell-based, human
Protocol: For MCM-CD4 T cell proliferation study, CD3 & CD28-stimulated, CFSE-labeled CD4 T cells were cultured with 50% MCM. T cell proliferation was measured on day 11 as described above. Culture supernatants of the MCM-CD4 T cell co-culture were collected for subsequent cytokine analysis. MCM-CD4 T cell surface marker evaluation was performed as described above.
To determine whether soluble factors secreted from β-glucan-treated M2 macrophages are required, measurements were carried out of CD4 T cell proliferation co-cultured with β-glucan-treated M2 macrophages MCM (50% of volume) and surface activation marker modulation on T cells incubated with the MCM were observed. FIG. 9 is representative of 2 different experiments. […] In addition, the CD4 T cells cultured in vehicle- and β-glucan-treated M2 macrophage MCM were evaluated for modulation of co-stimulatory or co-inhibitory molecules (CD80, CD28, CTLA-4, 4-1BB and PD-1).
To test this, M2 macrophages were prepared as described above with a few modifications. The whole blood of a low binder was spun down to remove the plasma and then the cells were reconstituted with serum obtained from a high binder. The reconstituted blood was treated with vehicle or β-glucan (25 μg/mL) for 2 hours at 37° C. The monocytes were evaluated for binding by using anti-β-glucan specific monoclonal antibody and subsequent flow cytometry.

## β(1,6)-[poly-(1,3)-D-glucopyranosyl]-poly-β(1,3)-D-glucopyranose [β-glucan]
CD4 T cells cultured in M2 macrophage MCM (data not shown)
  T cell markers (CD80, CD28, CTLA-4, 4-1BB and PD-1): no change
MCM of M2 macrophages of a low binder crossed-over with high binder's serum, vs vehicle
  CD4 T cell proliferation: significantly higher ability to enhance
β-glucan-treated M2 macrophage MCM (50% of volume) vs vehicle MCM
  CD4 T cell proliferation: significantly higher ability to enhance
